In patent US20100137305A1, “AMINOPYRIMIDINES USEFUL AS KINASE INHIBITORS” (VERTEX PHARMACEUTICALS INCORPORATED, priority 2008, published 2010):
Read-outs that look alike come from different tables or passages of the source.

How the values were obtained:
Aurora-2 (Aurora A) = biological target: T1, Aurora-2 (Aurora A) (Homo sapiens, UniProt O14965); experiment: Aurora-2 (Aurora A) Inhibition Assay, coupled enzyme assay; assay type: biochemical; conditions: 400 μM ATP, 30° C.; read-out: Aurora A kinase activity Ki
T1 sequence (O14965 1-403): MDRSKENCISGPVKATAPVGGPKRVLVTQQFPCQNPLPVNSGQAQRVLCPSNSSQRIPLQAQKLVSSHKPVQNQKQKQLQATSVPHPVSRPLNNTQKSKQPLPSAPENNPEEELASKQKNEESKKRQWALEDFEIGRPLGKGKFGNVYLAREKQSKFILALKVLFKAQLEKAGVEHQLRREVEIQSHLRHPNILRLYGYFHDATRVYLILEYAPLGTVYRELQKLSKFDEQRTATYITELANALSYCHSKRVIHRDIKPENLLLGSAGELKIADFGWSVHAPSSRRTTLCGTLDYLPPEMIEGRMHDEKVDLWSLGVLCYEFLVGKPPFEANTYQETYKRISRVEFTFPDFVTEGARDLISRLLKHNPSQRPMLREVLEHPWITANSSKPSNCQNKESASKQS
Protocol: Compounds were screened for their ability to inhibit Aurora-2 using a standard coupled enzyme assay (Fox et al., Protein Sci., (1998) 7, 2249). Assays were carried out in a mixture of 100 mM Hepes (pH7.5), 10 mM MgCl2, 1 mM DTT, 25 mM NaCl, 2.5 mM phosphoenolpyruvate, 300 μM NADH, 30 μg/ml pyruvate kinase and 10 μg/ml lactate dehydrogenase. Final substrate concentrations in the assay were 400 μM ATP (Sigma Chemicals) and 570 μM peptide (Kemptide, American Peptide, Sunnyvale, Calif.). Assays were carried out at 30° C. and in the presence of 40 nM Aurora-2.
An assay stock buffer solution was prepared containing all of the reagents listed above, with the exception of Aurora-2 and the test compound of interest. 55 μl of the stock solution was placed in a 96 well plate followed by addition of 2 μl of DMSO stock containing serial dilutions of the test compound (typically starting from a final concentration of 7.5 μM). The plate was preincubated for 10 minutes at 30° C. and the reaction initiated by addition of 10 μl of Aurora-2. Initial reaction rates were determined with a Molecular Devices SpectraMax Plus plate reader over a 10 minute time course. IC50 and Ki data were calculated from non-linear regression analysis using the Prism software package (GraphPad Prism version 3.0cx for Macintosh, GraphPad Software, San Diego Calif., USA).

[1] = biological target: N-terminally truncated (Δ 27) Abl kinase (Homo sapiens, UniProt P00519); experiment: Abl Kinase Activity Inhibition Assay, coupled enzyme system; assay type: biochemical; conditions: 110 μM ATP, 30° C.
Protocol: Compounds were screened for their ability to inhibit N-terminally truncated (Δ 27) Abl kinase activity using a standard coupled enzyme system (Fox et al., Protein Sci., 7, pp. 2249 (1998)). Reactions were carried out in a solution containing 100 mM HEPES (pH 7.5), 10 mM MgCl2, 25 mM NaCl, 300 μM NADH, 1 mM DTT and 3% DMSO. Final substrate concentrations in the assay were 110 μM ATP (Sigma Chemicals, St Louis, Mo.) and 70 μM peptide (EAIYAAPFAKKK, American Peptide, Sunnyvale, Calif.). Reactions were carried out at 30° C. and 21 nM Abl kinase. Final concentrations of the components of the coupled enzyme system were 2.5 mM phosphoenolpyruvate, 200 μM NADH, 60 μg/ml pyruvate kinase and 20 μg/ml lactate dehydrogenase.
An assay stock buffer solution was prepared containing all of the reagents listed above with the exception of ATP and the test compound of interest. The assay stock buffer solution (60 μl) was incubated in a 96 well plate with 2 μl of the test compound of interest at final concentrations typically spanning 0.002 μM to 30 μM at 30° C. for 10 min. Typically, a 12 point titration was prepared by serial dilutions (from 1 mM compound stocks) with DMSO of the test compounds in daughter plates. The reaction was initiated by the addition of 5 μl of ATP (final concentration 110 μM). Rates of reaction were obtained using a Molecular Devices Spectramax plate reader (Sunnyvale, Calif.) over 10 min at 30° C. The Ki values were determined from the residual rate data as a function of inhibitor concentration using nonlinear regression (Prism 3.0, Graphpad Software, San Diego, Calif.).

Aurora-1 (Aurora B) = Aurora-1 (Aurora B) (Homo sapiens, UniProt Q96GD4); experiment: Aurora-1 (Aurora B) Inhibition Assay (radiometric); assay type: biochemical; conditions: 800 μM ATP; read-out: Aurora B kinase activity Ki
Sequence of Aurora-1 (Aurora B) (Q96GD4 whole entry): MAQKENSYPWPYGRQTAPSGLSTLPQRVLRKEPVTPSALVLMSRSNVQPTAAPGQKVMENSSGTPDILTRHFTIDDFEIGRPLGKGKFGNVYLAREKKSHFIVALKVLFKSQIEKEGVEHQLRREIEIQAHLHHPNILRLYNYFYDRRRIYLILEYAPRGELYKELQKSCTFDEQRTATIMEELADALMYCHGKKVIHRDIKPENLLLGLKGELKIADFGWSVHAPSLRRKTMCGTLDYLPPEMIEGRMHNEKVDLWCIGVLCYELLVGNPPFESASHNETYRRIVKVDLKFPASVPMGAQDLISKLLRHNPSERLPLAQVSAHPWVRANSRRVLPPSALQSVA
Protocol: An assay buffer solution was prepared which consisted of 25 mM HEPES (pH 7.5), 10 mM MgCl2, 0.1% BSA and 10% glycerol. A 22 nM Aurora-B solution, also containing 1.7 mM DTT and 1.5 mM Kemptide (LRRASLG), was prepared in assay buffer. To 22 μL of the Aurora-B solution, in a 96-well plate, was added 2 μl of a compound stock solution in DMSO and the mixture allowed to equilibrate for 10 minutes at 25° C. The enzyme reaction was initiated by the addition of 16 μl stock [γ-^33P]-ATP Pi-ATP solution (˜20 nCi/μL) prepared in assay buffer, to a final assay concentration of 800 μM. The reaction was stopped after 3 hours by the addition of 16 μL 500 mM phosphoric acid and the levels of ^33P incorporation into the peptide substrate were determined by the following method.
A phosphocellulose 96-well plate (Millipore, Cat no. MAPHNOB50) was pre-treated with 100 μL of a 100 mM phosphoric acid prior to the addition of the enzyme reaction mixture (40 μL). The solution was left to soak on to the phosphocellulose membrane for 30 minutes and the plate subsequently washed four times with 200 μL of a 100 mM phosphoric acid. To each well of the dry plate was added 30 μL of Optiphase ‘SuperMix’ liquid scintillation cocktail (Perkin Elmer) prior to scintillation counting (1450 Microbeta Liquid Scintillation Counter, Wallac). Levels of non-enzyme catalyzed background radioactivity were determined by adding 16 μL of the 500 mM phosphoric acid to control wells, containing all assay components (which acts to denature the enzyme), prior to the addition of the [γ-^33P]-ATP solution. Levels of enzyme catalyzed ^33P incorporation were calculated by subtracting mean background counts from those measured at each inhibitor concentration. For each Ki determination 8 data points, typically covering the concentration range 0-10 μM compound, were obtained in duplicate (DMSO stocks were prepared from an initial compound stock of 10 mM with subsequent 1:2.5 serial dilutions). Ki values were calculated from initial rate data by non-linear regression using the Prism software package (Prism 3.0, Graphpad Software, San Diego, Calif.).

[2] = biological target: T2, T315I mutant of human Abl (Homo sapiens, UniProt P00519, T315I); experiment: Mutant Abl Kinase (T315I) Activity Inhibition Assay (Upstate, radiometric); assay type: biochemical
T2 construct: purchased Upstate Cell Signaling Solutions (Dundee, UK)

Colo205 cells = experiment: Analysis of Cell Proliferation, 3H thymidine incorporation; assay type: cell-based; conditions: Homo sapiens
Protocol: Compounds were screened for their ability to inhibit cell proliferation using Colo205 cells obtained from ECACC and using the assay shown below.
Colo205 cells were seeded in 96 well plates and serially diluted compound was added to the wells in duplicate. Control groups included untreated cells, the compound diluent (0.1% DMSO alone) and culture medium without cells. The cells were then incubated for 72 or 96 hrs at 37C in an atmosphere of 5% CO2/95% humidity.
To measure proliferation, 3 h prior to the end of the experiment 0.5 μCi of 3H thymidine was added to each well. Cells were then harvested and the incorporated radioactivity counted on a Wallac microplate beta-counter. Dose response curves were calculated using either Prism 3.0 (GraphPad) or SoftMax Pro 4.3.1 LS (Molecular Devices) software.

[3] = COLO 205, 96 h, 96 hours, read-out: IC50 cell proliferation after 96 hours
[4] = COLO 205, 72 h, 72 hours, read-out: IC50 cell proliferation after 72 hours

Compound	Ki (Aurora-2 (Aurora A))	Ki [1]	Ki (Aurora-1 (Aurora B))	Ki [2]	IC50 (Colo205 cells; [3])	IC50 (Colo205 cells; [4])
Cc1cnc(Nc2cc(N3CCC(N4CCOCC4)CC3)nc(Sc3ccc(NC(=O)C4CC4)cc3)n2)s1 [Compound I-4]	≤ 10 nM	< 25 nM	–	–	–	–
CCC(=O)Nc1ccc(Sc2nc(Nc3cc(C)n[nH]3)cc(N3CCC(NC(C)(C)C)CC3)n2)cc1 [Compound I-7]	≤ 10 nM	25 to 100 nM	10 to 50 nM	< 200 nM	–	–
Cc1cnc(Nc2cc(N3CC[C@H](O)C3)nc(Sc3ccc(NC(=O)C4CC4)cc3)n2)s1 [Compound I-12]	≤ 10 nM	25 to 100 nM	–	–	50 to 200 nM	–
CCC(=O)Nc1ccc(Sc2nc(Nc3cc(C)n[nH]3)cc(N3CCC(F)C3)n2)cc1 (stereo not drawn) [Compound I-18]	≤ 10 nM	< 25 nM	10 to 50 nM	200 to 500 nM	50 to 200 nM	–
CCC(=O)Nc1ccc(Sc2nc(Nc3cc(C)n[nH]3)cc(N3CC[C@@H](N(C)C)C3)n2)cc1 [Compound I-24]	≤ 10 nM	< 25 nM	–	–	50 to 200 nM	–
Cc1cnc(Nc2cc(N3CCC(N4CCCC4)CC3)nc(Sc3ccc(NC(=O)C4CC4)cc3)n2)s1 [Compound I-38]	≤ 10 nM	< 25 nM	10 to 50 nM	–	≤ 50 nM	–
CCN[C@H]1CCN(c2cc(Nc3cc(C)n[nH]3)nc(Sc3ccc(NC(=O)CC)cc3)n2)C1 [Compound I-39]	≤ 10 nM	< 25 nM	10 to 50 nM	–	≤ 50 nM	–
CCC(=O)Nc1ccc(Sc2nc(Nc3cc(C)n[nH]3)cc(N3CCC(N4CCCC4)CC3)n2)cc1 [Compound I-41]	≤ 10 nM	25 to 100 nM	–	< 200 nM	≤ 50 nM	25 to 125 nM
CCC(=O)Nc1ccc(Sc2nc(Nc3cc(C)[nH]n3)cc(N3CC[C@H](N(C)C)C3)n2)cc1 [Compound I-46]	≤ 10 nM	< 25 nM	10 to 50 nM	–	≤ 50 nM	–
CN[C@H]1CCN(c2cc(Nc3ncc(C)s3)nc(Sc3ccc(NC(=O)C4CC4)cc3)n2)C1 [Compound I-52]	≤ 10 nM	< 25 nM	–	–	≤ 50 nM	–
CCC(=O)Nc1ccc(Sc2nc(Nc3cc(C)n[nH]3)cc(N3CCC4(CCN(C)C4)CC3)n2)cc1 [Compound I-53]	≤ 10 nM	< 25 nM	–	< 200 nM	≤ 50 nM	25 to 125 nM
CCC(=O)Nc1ccc(Sc2nc(Nc3cc(C)n[nH]3)cc(N3CC[C@H](N4CCCC4)C3)n2)cc1 [Compound I-55]	≤ 10 nM	–	–	200 to 500 nM	≤ 50 nM	–
CCC(=O)Nc1ccc(Sc2nc(Nc3cc(C)n[nH]3)cc(N3CCC(N4[C@H](C)CC[C@H]4C)CC3)n2)cc1 [Compound I-57]	≤ 10 nM	< 25 nM	10 to 50 nM	–	≤ 50 nM	–
CCC(=O)Nc1ccc(Sc2nc(Nc3cc(C)n[nH]3)cc(N3CC4CN(C(C)C)CC4C3)n2)cc1 (stereo not drawn) [Compound I-60]	≤ 10 nM	< 25 nM	10 to 50 nM	–	≤ 50 nM	–
CCC(=O)Nc1ccc(Sc2nc(Nc3cc(C)n[nH]3)cc(N3CCC(O)(C(C)(C)C)CC3)n2)cc1 [Compound I-61]	≤ 10 nM	–	10 to 50 nM	200 to 500 nM	≤ 50 nM	–
Cc1cc(Nc2cc(N3CCC(N4CCOCC4)CC3)nc(Sc3ccc(NC(=O)CC(F)(F)F)cc3)n2)[nH]n1 [Compound I-72]	≤ 10 nM	–	≤ 10 nM	< 200 nM	–	≤ 25 nM
Cc1cc(Nc2cc(N3CCC(F)C3)nc(Sc3ccc(NC(=O)CC(F)(F)F)cc3)n2)[nH]n1 (stereo not drawn) [Compound I-78]	–	< 25 nM	–	–	–	–
Cc1cc(Nc2cc(N3CCC(N4CCC(F)(F)C4)CC3)nc(Sc3ccc(NC(=O)CC(F)(F)F)cc3)n2)[nH]n1 [Compound I-82]	≤ 10 nM	–	10 to 50 nM	200 to 500 nM	–	25 to 125 nM
